Drawing on US20110288116A1, “IAP INHIBITORS” (TETRALOGIC PHARMACEUITCAL CORPORATION, priority 2008, published 2011), this text covers Kd for 43 compounds.

The structures appear in SMILES notation.

T1 sequence (P98170 241-356 limits assumed): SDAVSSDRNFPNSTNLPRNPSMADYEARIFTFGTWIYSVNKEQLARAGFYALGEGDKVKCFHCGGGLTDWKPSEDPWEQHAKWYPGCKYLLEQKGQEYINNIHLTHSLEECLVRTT

This assay has as its target T1, XIAP BIR-3 (Homo sapiens, UniProt P98170).
T1 construct: 40 nM of the BIR3 for 15 min at RT
Briefly: Fluorescence polarization binding to XIAP BIR-3 (competition with AbuRPF-K(5-Fam)-NH2). The conditions noted are these: XIAP BIR-3 (default where cell does not indicate otherwise); reported as range class. As for the experimental part: The binding affinities of the compounds are reported as a Kd value. Briefly, various concentrations of test peptides were mixed with 5 nM of the fluorescently labeled peptide (i.e., a mutated N-terminal Smac peptide—AbuRPF-K(5-Fam)-NH2) and 40 nM of the BIR3 for 15 min at RT in […] of 0.1M Potassium Phosphate buffer, pH 7.5 containing […] bovine g-globulin. Following incubation, the polarization values (mP) were measured on a Victor2V (available from PerkinElmer Life Sciences) using a 485 nm excitation filter and a 520 nm emission filter. The reported Kd values are supplied as ranges (A=<0.1 μM, B=0.1 μM to C=>1 μM to 10 μM, D=>10 μM) and, unless otherwise indicated, are the Kd for XIAP BIR-3.
Background: In fluorescence polarisation assays a small probe gives low polarisation when free and higher when bound to something large.
Broadly, the Kd is the constant that tells how readily two partners part at equilibrium. A lower Kd goes with higher affinity. As to `CN[C@@H](CO)C(=O)N[C@H](C(=O)N1CC[C@H](C)[C@H]1Cc1c[nH]c2cc(F)ccc12)[C@@H](C)O` [PP], the Kd is greater than 10000 nM. The compound `CCN[C@@H](C)C(=O)N[C@H](C(=O)N1CC[C@H](OC)[C@H]1Cc1c[nH]c2ncccc12)C(C)(C)C` [GG] gave a Kd of 1000 to 10000 nM. Consider `CCN[C@@H](C)C(=O)N[C@H](C(=O)N1CC[C@H](OC)[C@H]1Cc1c[nH]c2cc(F)ccc12)[C@@H](C)OC` [G′], for which the Kd was greater than 10000 nM. For `CC[C@H](NC)C(=O)N[C@H](C(=O)N1CC[C@H](O)[C@H]1Cc1c[nH]c2cc(F)ccc12)C(C)(C)C` [VV], the Kd is less than 100 nM.

In the case of `CN[C@@H](C)C(=O)N[C@H](C(=O)N1CCC[C@H]1Cc1c[nH]c2ncccc12)[C@@H](C)OC` [D], the Kd is less than 100 nM. In the case of `CCNCC(=O)N[C@H](C(=O)N1CCC[C@H]1Cc1c[nH]c2ncccc12)[C@@H](C)OC` [I], the Kd is greater than 100 nM. Compound `CN[C@@H](C)C(=O)N[C@H](C(=O)N1CC[C@@H](O)[C@H]1Cc1c[nH]c2ccccc12)C1CCCCC1` [LL′, N-{1-Cyclohexyl-2-[3-hydroxy-2-(1H-indol-3-ylmethyl)-pyrrolidin-1-yl]-2-oxo-ethyl}-2-methylamino-propionamide] came in with a Kd of less than 100 nM.

In the case of `CN[C@@H](C)C(=O)N[C@H](C(=O)N1CC[C@@H](O)[C@H]1Cc1c(-c2ccc(F)cc2)[nH]c2ccccc12)C1CCCCC1` [KKK], the Kd was greater than 100 nM. `CN[C@@H](C)C(=O)N[C@H](C(=O)N1CC[C@H](OC)[C@H]1Cc1c[nH]c2cc(F)ccc12)C(C)(C)C` [H′] registered a Kd greater than 10000 nM. The compound `CCN[C@@H](CC)C(=O)N[C@H](C(=O)N1CCC[C@H]1Cc1c[nH]c2ncccc12)[C@@H](C)OC` [G] yielded a Kd of less than 100 nM. The compound `CC[C@H](NC)C(=O)N[C@H](C(=O)N1CC[C@@H](O)[C@H]1Cc1c[nH]c2ccccc12)[C@@H](C)OC` [HH′] came in with a Kd of less than 100 nM. Take `CCN[C@@H](C)C(=O)N[C@H](C(=O)N1CC[C@H](C)[C@H]1Cc1c[nH]c2cc(F)ccc12)[C@@H](C)OC` [MM]: the Kd lay within 1000 to 10000 nM. `CCN[C@@H](C)C(=O)N[C@H](C(=O)N1CC[C@H](O)[C@H]1Cc1cn(C)c2cc(F)ccc12)[C@@H](C)OC` [ZZ] came in with a Kd of less than 100 nM. `CC[C@H](NC)C(=O)N[C@H](C(=O)N1C[C@@H](O)C[C@H]1Cc1c[nH]c2ncccc12)C1CCCCC1` [B] returned a Kd of less than 100 nM.

The compound `CN[C@@H](C)C(=O)N[C@H](C(=O)N1CCC[C@H]1Cc1cn(C)c2ncccc12)[C@@H](C)OC` [U] came in with a Kd of less than 100 nM. Take `CCN[C@@H](C)C(=O)N[C@H](C(=O)N1CCC[C@H]1Cc1c[nH]c2ncccc12)[C@@H](C)OC` [H]: the dissociation constant (Kd) was less than 100 nM. `CC[C@H](NC)C(=O)N[C@H](C(=O)N1CC[C@H](OC)[C@H]1Cc1c[nH]c2cc(F)ccc12)[C@@H](C)OC` [D′] displayed a Kd greater than 10000 nM.

Turning to `CN[C@@H](C)C(=O)N[C@H](C(=O)N1CC[C@H](OC)[C@H]1Cc1c(Cl)[nH]c2cc(F)ccc12)[C@@H](C)OC` [P′], the Kd was less than 100 nM. Then `CN[C@@H](C)C(=O)N[C@H](C(=O)N1CCC[C@H]1Cc1c[nH]c2c1ccc[n+]2[O-])C(C)(C)C` [S], with less than 100 nM; and `CN[C@@H](C)C(=O)N[C@H](C(=O)N1CCC[C@H]1Cc1c[nH]c2ncccc12)C(C)(C)C` [E], with less than 100 nM. The compound `CCN[C@@H](C)C(=O)N[C@H](C(=O)N1CC[C@H](OC)[C@H]1Cc1cn(C)c2cc(F)ccc12)[C@@H](C)OC` [A′] gave a Kd greater than 100 nM.

`CC[C@H](NC)C(=O)N[C@H](C(=O)N1CC[C@H](OC)[C@H]1Cc1c(Cl)[nH]c2cc(F)ccc12)[C@@H](C)OC` [Q′] had a Kd greater than 100 nM.

With `CN[C@@H](C)C(=O)N[C@H](C(=O)N1CC[C@H](C)[C@H]1Cc1c[nH]c2cc(F)ccc12)[C@@H](C)OC` [JJ, N-{1-{1-2-(6-fluoro-1H-indol-3-ylmethyl)-3-methyl-pyrrolidine-1-carbonyl]-2-methoxy-propyl}-2-methylamino-propionamide], the Kd was greater than 100 nM. In turn, `CN[C@@H](C)C(=O)N[C@H](C(=O)N1CCC[C@H]1Cc1c(-c2ccccc2)n(C)c2ncccc12)[C@@H](C)OC` [Y] came in with a Kd of less than 100 nM. Compound `CN[C@@H](C)C(=O)N[C@H](C(=O)N1CCC[C@H]1Cc1c[nH]c2c1ccc[n+]2[O-])[C@@H](C)OC` [P] showed a Kd of less than 100 nM. On to `CN[C@@H](CO)C(=O)N[C@H](C(=O)N1CC[C@H](OC)[C@H]1Cc1c(Cl)[nH]c2cc(F)ccc12)[C@@H](C)OC` [S′], for which the Kd fell in the range of 1000 to 10000 nM. Take `CN[C@@H](C)C(=O)N[C@H](C(=O)N1CC[C@H](OC)[C@H]1Cc1c[nH]c2cc(F)ccc12)[C@@H](C)OC` [L′]: the Kd is greater than 10000 nM. In turn, `CN[C@@H](C)C(=O)N[C@H](C(=O)N1CC[C@H](O)[C@H]1Cc1cn(C)c2cc(F)ccc12)[C@@H](C)OC` [YY] displayed a Kd of less than 100 nM. The figure for `CN[C@@H](CO)C(=O)N[C@H](C(=O)N1CC[C@H](C)[C@H]1Cc1c[nH]c2cc(F)ccc12)[C@@H](C)OC` [LL] is greater than 10000 nM; for `CN[C@@H](C)C(=O)N[C@H](C(=O)N1CC[C@H](C)[C@H]1Cc1c[nH]c2cc(F)ccc12)[C@@H](C)O` [NN] it is 1000 to 10000 nM; for `CC[C@H](NC)C(=O)N[C@H](C(=O)N1CC[C@@H](O)[C@H]1Cc1c[nH]c2ccccc12)[C@@H](C)O` [EE′] it is less than 100 nM.

`CN[C@@H](C)C(=O)N[C@H](C(=O)N1CC[C@H](O)[C@H]1Cc1c[nH]c2cc(F)ccc12)C(C)(C)C` [UU] returned a Kd of less than 100 nM. As to `CN[C@@H](C)C(=O)N[C@H](C(=O)N1CC[C@@H](O)[C@H]1Cc1c[nH]c2ccccc12)[C@@H](C)O` [FF′], the Kd is less than 100 nM. Compound `CCN[C@@H](CC)C(=O)N[C@H](C(=O)N1CCC[C@H]1Cc1c[nH]c2c1ccc[n+]2[O-])[C@@H](C)OC` [Compound R] displayed a Kd greater than 100 nM. On to `CN[C@@H](C)C(=O)N[C@H](C(=O)N1C[C@@H](O)C[C@H]1Cc1c[nH]c2ncccc12)[C@@H](C)OC` [Compound A, N-{1-[4-Hydroxy-2-(1H-pyrrolo[2,3-b]pyridin-3-ylmethyl)-pyrrolidine-1-carbonyl]-2-methoxy-propyl}-2-methylamino-propionamide], for which the Kd is less than 100 nM. `CC[C@H](NC)C(=O)N[C@H](C(=O)N1CCC[C@H]1Cc1cn(C)c2ncccc12)[C@@H](C)OC` [T] registered a Kd of less than 100 nM.

`CC[C@H](NC)C(=O)N[C@H](C(=O)N1CC[C@H](OC)[C@H]1Cc1c(Cl)[nH]c2cc(F)ccc12)[C@@H](C)O` [O′] displayed a Kd greater than 100 nM. Compound `CC[C@H](NC)C(=O)N[C@H](C(=O)N1CC[C@H](C)[C@H]1Cc1c[nH]c2cc(F)ccc12)[C@@H](C)OC` [KK] registered an equilibrium dissociation constant (Kd) greater than 10000 nM. Consider `CN[C@@H](C)C(=O)N[C@H](C(=O)N1CC[C@H](OC)[C@H]1Cc1c(Cl)[nH]c2cc(F)ccc12)[C@@H](C)O` [N′], for which the Kd was greater than 100 nM.

In the case of `CN[C@@H](C)C(=O)N[C@H](C(=O)N1CC[C@H](OC)[C@H]1Cc1cn(C)c2cc(F)ccc12)[C@@H](C)OC` [B′], the Kd is less than 100 nM. In turn, `CCN[C@@H](C)C(=O)N[C@H](C(=O)N1CCC[C@H]1Cc1c[nH]c2c1ccc[n+]2[O-])[C@@H](C)OC` [Q] gave a Kd greater than 100 nM. Compound `CCN[C@@H](C)C(=O)N[C@H](C(=O)N1CC[C@H](OC)[C@H]1Cc1c[nH]c2ncccc12)C(C)C` [II] came in with a Kd of 1000 to 10000 nM. Then `CCN[C@@H](C)C(=O)N[C@H](C(=O)N1CC[C@H](OC)[C@H]1Cc1c(Cl)[nH]c2cc(F)ccc12)[C@@H](C)OC` [R′], with greater than 100 nM.
